Assay results: patent US20240174603A1 (Rappta Therapeutics Oy, priority 2021, published 2024)

System: LNCaP cells
Assay: LNCaP cell viability assay (MTS)
Format: cell-based
Conditions: Homo sapiens, LNCaP, 48 h, LNCaP cell line
Procedure, shortened: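 GI50 derived by nonlinear four-parameter curve fitting (bottom fixed at zero) of MTS viability data. Prostate LNCaP cells seeded at 5000/well were given compound doses from 1 to 80 µM one day after plating and assayed after 48 h of exposure.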

SMILES | GI50 [µM]
CC1CCCCC1OCCNS(=O)(=O)c1ccc(OC(F)(F)F)cc1 (stereo not shown) [Compound 95, N-(2-((2-methylcyclohexyl)oxy)ethyl)-4-(trifluoromethoxy)benzenesulfonamide] | 15
O=S(=O)(NCCNS(=O)(=O)c1ccc(F)c(Cl)c1)c1ccc(OC(F)(F)F)cc1 [Compound 96, 3-chloro-4-fluoro-N-(2-((4-(trifluoromethoxy)phenyl)sulfonamido)ethyl)benzenesulfonamide] | 31
O=S(=O)(NCCNS(=O)(=O)c1ccc(Cl)cc1F)c1ccc(OC(F)(F)F)cc1 [Compound 97, 4-chloro-2-fluoro-N-(2-((4-(trifluoromethoxy)phenyl)sulfonamido)ethyl)benzenesulfonamide] | 41
CN(C)CC1(CNS(=O)(=O)c2ccc(OC(F)(F)F)cc2)CC1 [Compound 98, N-((1-((dimethylamino)methyl)cyclopropyl)methyl)-4-(trifluoromethoxy)benzenesulfonamide] | 29
CC1CCCC(CNS(=O)(=O)c2ccc(OC(F)(F)F)cc2)(N(C)C)C1 (stereo not shown) [Compound 99, N-((1-(dimethylamino)-3-methylcyclohexyl)methyl)-4-(trifluoromethoxy)benzenesulfonamide] | 45
O=S(=O)(NCCN1c2ccccc2NS1(=O)=O)c1ccc(OC(F)(F)F)cc1 [Compound 100, N-(2-(2,2-dioxidobenzo[c] [1,2,5]thiadiazol-1(3H)-yl)ethyl)-4-(trifluoromethoxy)benzenesulfonamide] | 61
O=S(=O)(NC(c1ccc(F)cc1)C1CCCO1)c1ccc(OC(F)(F)F)cc1 (stereo not shown) [Compound 101, N-((4-fluorophenyl)(tetrahydrofuran-2-yl)methyl)-4-(trifluoromethoxy)benzenesulfonamide] | 33
Cc1ccccc1C(NS(=O)(=O)c1ccc(OC(F)(F)F)cc1)C1CCCC(C)C1 (stereo not shown) [Compound 102, N-((3-methylcyclohexyl)(o-tolyl)methyl)-4-(trifluoromethoxy)benzenesulfonamide] | 14
CC1CC1C(NS(=O)(=O)c1ccc(OC(F)(F)F)cc1)c1ccccc1 (stereo not shown) [Compound 103, N-((2-methylcyclopropyl)(phenyl)methyl)-4-(trifluoromethoxy)benzenesulfonamide] | 20
Cc1ccc(C(NS(=O)(=O)c2ccc(OC(F)(F)F)cc2)C(C)S(C)(=O)=O)cc1 (stereo not shown) [Compound 104, N-(2-(methylsulfonyl)-1-(p-tolyl)propyl)-4-(trifluoromethoxy)benzenesulfonamide] | 49
CC(NS(=O)(=O)c1ccc(OC(F)(F)F)cc1)C(NC(=O)OC(C)(C)C)c1ccccc1 (stereo not shown) [Compound 105, Tert-butyl (1-phenyl-2-((4-(trifluoromethoxy)phenyl)sulfonamido)propyl)carbamate] | 37
CCC(NS(=O)(=O)c1ccc(OC(F)(F)F)cc1)(C(=O)OC)c1ccccc1 (stereo not shown) [Compound 107, Methyl 2-phenyl-2-((4-(trifluoromethoxy)phenyl)sulfonamido)butanoate] | 69
O=[N+]([O-])c1ccc(S(=O)(=O)NCCNS(=O)(=O)c2ccc(OC(F)(F)F)cc2)cc1 [Compound 108, 4-nitro-N-(2-((4-(trifluoromethoxy)phenyl)sulfonamido)ethyl)benzenesulfonamide] | 65
CC(C)CC(NS(=O)(=O)c1ccc(OC(F)(F)F)cc1)C(=O)Nc1nccs1 (stereo not shown) [Compound 109, 4-methyl-N-(thiazol-2-yl)-2-((4-(trifluoromethoxy)phenyl)sulfonamido)pentanamide] | 25
CCOC(=O)C(CC1CCOC1)NS(=O)(=O)c1ccc(OC(F)(F)F)cc1 (stereo not shown) [Compound 110, Ethyl 3-(tetrahydrofuran-3-yl)-2-((4-(trifluoromethoxy)phenyl)sulfonamido)propanoate] | 61
COC(=O)C(Cc1ccccc1O)NS(=O)(=O)c1ccc(OC(F)(F)F)cc1 (stereo not shown) [Compound 111, Methyl 3-(2-hydroxyphenyl)-2-((4-(trifluoromethoxy)phenyl)sulfonamido)propanoate] | 50
COC(=O)C(Cc1ccc(O)c(F)c1)NS(=O)(=O)c1ccc(OC(F)(F)F)cc1 (stereo not shown) [Compound 112, Methyl 3-(3-fluoro-4-hydroxyphenyl)-2-((4-(trifluoromethoxy)phenyl)sulfonamido)propanoate] | 38
CC(C)c1ccc(C(CC(=O)O)NS(=O)(=O)c2ccc(OC(F)(F)F)cc2)cc1 (stereo not shown) [Compound 113, 3-(4-isopropylphenyl)-3-((4-(trifluoromethoxy)phenyl)sulfonamido)propanoic acid] | 66
CC(C)(C)OC(=O)NC[C@H](NS(=O)(=O)c1ccc(OC(F)(F)F)cc1)c1ccccc1 [Compound 114, tert-butyl (R)-(2-phenyl-2-((4-(trifluoromethoxy)phenyl)sulfonamido)ethyl)carbamate] | 42.5
CC(C)(C)OC(=O)NC[C@@H](NS(=O)(=O)c1ccc(OC(F)(F)F)cc1)c1ccccc1 [Compound 115, tert-butyl (S)-(2-phenyl-2-((4-(trifluoromethoxy)phenyl)sulfonamido)ethyl)carbamate] | 51.6

SMILES | GI50 [µM]
NC[C@H](NS(=O)(=O)c1ccc(OC(F)(F)F)cc1)c1ccccc1 [Compound 116, (R)—N-(2-amino-1-phenylethyl)-4-(trifluoromethoxy)benzenesulfonamide] | 51.2
NC[C@@H](NS(=O)(=O)c1ccc(OC(F)(F)F)cc1)c1ccccc1 [Compound 117, (S)—N-(2-amino-1-phenylethyl)-4-(trifluoromethoxy)benzenesulfonamide] | 55
CCCOC1CCN(CC(NS(=O)(=O)c2ccc(OC(F)(F)F)cc2)c2ccccc2)CC1 (stereo not shown) [Compound 118, N-(1-phenyl-2-(4-propoxypiperidin-1-yl)ethyl)-4-(trifluoromethoxy)benzenesulfonamide] | 42.4
Cc1cccc(C(CN(C)C)NS(=O)(=O)c2ccc(OC(F)(F)F)cc2)c1 (stereo not shown) [Compound 119, N-(2-(dimethylamino)-1-(m-tolyl)ethyl)-4-(trifluoromethoxy)benzenesulfonamide] | 48.5
CN(C)CC(NS(=O)(=O)c1ccc(OC(F)(F)F)cc1)c1cccc(C(F)(F)F)c1 (stereo not shown) [Compound 120, N-(2-(dimethylamino)-1-(3-(trifluoromethyl)phenyl)ethyl)-4-(trifluoromethoxy)benzenesulfonamide] | 46.3
O=S(=O)(N[C@@H](CO)c1ccc(Cl)c(Cl)c1)c1ccc(OC(F)(F)F)cc1 [Compound 121, (R)—N-(1-(3,4-dichlorophenyl)-2-hydroxyethyl)-4-(trifluoromethoxy)benzenesulfonamide] | 40.2
O=S(=O)(N[C@H](CO)c1ccc(Cl)c(Cl)c1)c1ccc(OC(F)(F)F)cc1 [Compound 122, (S)—N-(1-(3,4-dichlorophenyl)-2-hydroxyethyl)-4-(trifluoromethoxy)benzenesulfonamide] | 43.4
Cc1ccc(C(CN(C)C)NS(=O)(=O)c2ccc(OC(F)(F)F)cc2)cc1 (stereo not shown) [Compound 123, N-(2-(dimethylamino)-1-(p-tolyl)ethyl)-4-(trifluoromethoxy)benzenesulfonamide] | 45.2
Cn1ccc(S(=O)(=O)NCC(NS(=O)(=O)c2ccc(OC(F)(F)F)cc2)c2ccccc2)c1 (stereo not shown) [Compound 124, 1-methyl-N-(2-phenyl-2-((4-(trifluoromethoxy)phenyl)sulfonamido)ethyl)-1H-pyrrole-3-sulfonamide] | 49.7
CN(C)CC(NS(=O)(=O)c1ccc(OC(F)(F)F)cc1)c1ccc(Cl)cc1 (stereo not shown) [Compound 125, N-(1-(4-chlorophenyl)-2-(dimethylamino)ethyl)-4-(trifluoromethoxy)benzenesulfonamide] | 57
CN=S(=O)(NC(CN(C)C)c1ccc(Cl)c(Cl)c1)c1ccc(OC(F)(F)F)cc1 (stereo not shown) [Compound 126, N-(1-(3,4-dichlorophenyl)-2-(dimethylamino)ethyl)-N′-methyl-4-(trifluoromethoxy)benzenesulfonimidamide] | 24.9
CNS(=O)(=NC(CN(C)C)c1ccc(Cl)c(Cl)c1)c1ccc(OC(F)(F)F)cc1 (stereo not shown) [Compound 127, N′-(1-(3,4-dichlorophenyl)-2-(dimethylamino)ethyl)-N-methyl-4-(trifluoromethoxy)benzenesulfonimidamide] | 51.9
CN(C)CC(NS(=O)(=O)c1cccc(OC(F)(F)F)c1)c1ccc(Cl)c(Cl)c1 (stereo not shown) [Compound 128, N-(1-(3,4-dichlorophenyl)-2-(dimethylamino)ethyl)-3-(trifluoromethoxy)benzenesulfonamide] | 21.1
CN(C)CC(NS(=O)(=O)c1cccc(F)c1)c1ccc(Cl)c(Cl)c1 (stereo not shown) [Compound 129, N-(1-(3,4-dichlorophenyl)-2-(dimethylamino)ethyl)-3-fluorobenzenesulfonamide] | 69.9
CN(C)CC(NS(=O)(=O)c1ccc(F)cc1)c1ccc(Cl)c(Cl)c1 (stereo not shown) [Compound 130, N-(1-(3,4-dichlorophenyl)-2-(dimethylamino)ethyl)-4-fluorobenzenesulfonamide] | 62.4
Cc1ccccc1S(=O)(=O)NC(CN(C)C)c1ccc(Cl)c(Cl)c1 (stereo not shown) [Compound 131, N-(1-(3,4-dichlorophenyl)-2-(dimethylamino)ethyl)-2-methylbenzenesulfonamide] | 49
Cc1cccc(S(=O)(=O)NC(CN(C)C)c2ccc(Cl)c(Cl)c2)c1 (stereo not shown) [Compound 132, N-(1-(3,4-dichlorophenyl)-2-(dimethylamino)ethyl)-3-methylbenzenesulfonamide] | 40.5
Cc1ccc(S(=O)(=O)NC(CN(C)C)c2ccc(Cl)c(Cl)c2)cc1 (stereo not shown) [Compound 133, N-(1-(3,4-dichlorophenyl)-2-(dimethylamino)ethyl)-4-methylbenzenesulfonamide] | 51.8
CN(C)CC(NS(=O)(=O)c1cc(F)cc(F)c1)c1ccc(Cl)c(Cl)c1 (stereo not shown) [Compound 134, N-(1-(3,4-dichlorophenyl)-2-(dimethylamino)ethyl)-3,5-difluorobenzenesulfonamide] | 75.6
CN(C)CC(NS(=O)(=O)C1CCCCC1)c1ccc(Cl)c(Cl)c1 (stereo not shown) [Compound 135, N-(1-(3,4-dichlorophenyl)-2-(dimethylamino)ethyl)cyclohexanesulfonamide] | 57.3
